The target of assay [1] is T1, Protein deacetylase HDAC6 (Homo sapiens, UniProt Q9UBN7).
T1 sequence (Q9UBN7 whole entry): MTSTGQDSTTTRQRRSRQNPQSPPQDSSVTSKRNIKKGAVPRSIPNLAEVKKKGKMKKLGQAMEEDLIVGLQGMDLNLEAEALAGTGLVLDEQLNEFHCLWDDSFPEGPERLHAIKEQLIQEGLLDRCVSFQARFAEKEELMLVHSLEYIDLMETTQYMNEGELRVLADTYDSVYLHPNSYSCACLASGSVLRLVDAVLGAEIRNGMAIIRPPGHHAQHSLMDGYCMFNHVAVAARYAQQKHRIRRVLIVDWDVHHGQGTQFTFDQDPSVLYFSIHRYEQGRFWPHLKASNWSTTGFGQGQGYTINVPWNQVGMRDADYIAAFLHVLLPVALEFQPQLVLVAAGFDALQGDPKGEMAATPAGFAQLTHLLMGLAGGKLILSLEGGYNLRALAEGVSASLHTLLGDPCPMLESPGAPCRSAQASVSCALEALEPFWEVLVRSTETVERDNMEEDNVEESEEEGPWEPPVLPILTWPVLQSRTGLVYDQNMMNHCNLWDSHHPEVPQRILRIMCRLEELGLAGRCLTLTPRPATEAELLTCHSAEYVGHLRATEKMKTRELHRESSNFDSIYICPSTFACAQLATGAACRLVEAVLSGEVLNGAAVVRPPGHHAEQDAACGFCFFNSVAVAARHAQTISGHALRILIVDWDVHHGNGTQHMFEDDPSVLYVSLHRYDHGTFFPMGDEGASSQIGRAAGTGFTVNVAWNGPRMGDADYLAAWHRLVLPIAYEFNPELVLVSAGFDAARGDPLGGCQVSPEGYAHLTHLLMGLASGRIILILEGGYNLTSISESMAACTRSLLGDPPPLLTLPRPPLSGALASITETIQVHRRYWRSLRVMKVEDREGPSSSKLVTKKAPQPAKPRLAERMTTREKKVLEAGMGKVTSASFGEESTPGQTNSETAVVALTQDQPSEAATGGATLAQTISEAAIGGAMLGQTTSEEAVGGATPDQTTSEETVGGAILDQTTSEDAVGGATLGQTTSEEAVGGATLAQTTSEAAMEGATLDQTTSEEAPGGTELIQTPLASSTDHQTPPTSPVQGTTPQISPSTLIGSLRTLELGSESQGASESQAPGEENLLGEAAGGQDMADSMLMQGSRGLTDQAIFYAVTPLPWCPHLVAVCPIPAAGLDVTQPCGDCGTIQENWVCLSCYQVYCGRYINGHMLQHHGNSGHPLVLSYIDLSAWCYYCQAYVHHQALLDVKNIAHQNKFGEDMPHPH
The experiment in a line: Inhibition of recombiant human HDAC6 using fluorogenic HDAC substrate 3 measured after 30 mins by fluorescence microplate reader assay.

For a further assay, the target named is T2, Histone deacetylase 8 (Homo sapiens, UniProt Q9BY41).
T2 sequence (Q9BY41 whole entry): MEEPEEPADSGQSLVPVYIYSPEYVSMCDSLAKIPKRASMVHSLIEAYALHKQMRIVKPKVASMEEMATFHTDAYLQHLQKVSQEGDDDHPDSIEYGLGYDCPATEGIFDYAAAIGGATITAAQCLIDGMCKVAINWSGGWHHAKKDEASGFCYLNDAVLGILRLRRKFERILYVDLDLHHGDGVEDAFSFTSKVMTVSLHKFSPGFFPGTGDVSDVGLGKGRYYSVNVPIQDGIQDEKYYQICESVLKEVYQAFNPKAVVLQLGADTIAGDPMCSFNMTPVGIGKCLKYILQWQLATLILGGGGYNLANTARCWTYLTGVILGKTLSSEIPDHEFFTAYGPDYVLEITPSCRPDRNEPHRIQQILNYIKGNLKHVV
The experiment in a line: Inhibition of HDAC8 (unknown origin) measured after 30 mins by fluorescence microplate reader assay.

For a further assay, the target named is CDK4/Cyclin D3 (Homo sapiens, UniProt P11802). Description: Inhibition of full length human CDK4 (1 to 303 residues)/N-terminal GST-fusion tagged CyclinD3 (1 to 292 residues) expressed in baculovirus expression system preincubated for 10 mins followed by substrate and ATP addition by mobility shift assay.
CDK4/Cyclin D3, sequence (P11802 whole entry, the tested form may be a part): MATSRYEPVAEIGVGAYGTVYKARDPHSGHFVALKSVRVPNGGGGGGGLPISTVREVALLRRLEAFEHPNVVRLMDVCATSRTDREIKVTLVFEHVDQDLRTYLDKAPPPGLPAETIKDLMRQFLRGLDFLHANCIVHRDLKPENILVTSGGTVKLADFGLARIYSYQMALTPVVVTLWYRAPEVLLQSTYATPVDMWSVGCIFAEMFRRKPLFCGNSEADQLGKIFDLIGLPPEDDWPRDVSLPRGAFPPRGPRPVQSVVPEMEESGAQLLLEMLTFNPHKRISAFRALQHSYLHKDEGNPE
CDK4/Cyclin D3, sequence (P30281 whole entry, further chain, the tested form may be a part): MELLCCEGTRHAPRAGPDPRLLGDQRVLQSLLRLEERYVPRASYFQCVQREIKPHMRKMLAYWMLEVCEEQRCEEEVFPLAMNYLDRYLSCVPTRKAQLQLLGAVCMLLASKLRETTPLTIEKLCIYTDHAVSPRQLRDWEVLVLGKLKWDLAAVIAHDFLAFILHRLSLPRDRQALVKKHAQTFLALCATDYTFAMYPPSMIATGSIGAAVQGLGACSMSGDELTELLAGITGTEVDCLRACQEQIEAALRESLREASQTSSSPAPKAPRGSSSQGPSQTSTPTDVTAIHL
The target of assay [2] is CDK4/Cyclin D3 (Homo sapiens) (UniProt P11802+P30281). Conditions: dose 100.0 nM, time 10.0 min.
In assay [3] the target is Histone deacetylase (Homo sapiens) (UniProt Q13547+O15379+Q9UBN7+Q92769+Q9UQL6+Q8WUI4+Q9BY41+Q96DB2+P56524+Q9UKV0+Q969S8). Conditions: HeLa, Nucleus, dose 1000.0 nM, time 1.0 hrs.
In the next assay the target is Histone deacetylase 5 (Homo sapiens, UniProt Q9UQL6). The experiment in a line: Inhibition of HDAC5 (unknown origin) measured after 30 mins by fluorescence microplate reader assay.
Histone deacetylase 5, sequence (Q9UQL6 whole entry): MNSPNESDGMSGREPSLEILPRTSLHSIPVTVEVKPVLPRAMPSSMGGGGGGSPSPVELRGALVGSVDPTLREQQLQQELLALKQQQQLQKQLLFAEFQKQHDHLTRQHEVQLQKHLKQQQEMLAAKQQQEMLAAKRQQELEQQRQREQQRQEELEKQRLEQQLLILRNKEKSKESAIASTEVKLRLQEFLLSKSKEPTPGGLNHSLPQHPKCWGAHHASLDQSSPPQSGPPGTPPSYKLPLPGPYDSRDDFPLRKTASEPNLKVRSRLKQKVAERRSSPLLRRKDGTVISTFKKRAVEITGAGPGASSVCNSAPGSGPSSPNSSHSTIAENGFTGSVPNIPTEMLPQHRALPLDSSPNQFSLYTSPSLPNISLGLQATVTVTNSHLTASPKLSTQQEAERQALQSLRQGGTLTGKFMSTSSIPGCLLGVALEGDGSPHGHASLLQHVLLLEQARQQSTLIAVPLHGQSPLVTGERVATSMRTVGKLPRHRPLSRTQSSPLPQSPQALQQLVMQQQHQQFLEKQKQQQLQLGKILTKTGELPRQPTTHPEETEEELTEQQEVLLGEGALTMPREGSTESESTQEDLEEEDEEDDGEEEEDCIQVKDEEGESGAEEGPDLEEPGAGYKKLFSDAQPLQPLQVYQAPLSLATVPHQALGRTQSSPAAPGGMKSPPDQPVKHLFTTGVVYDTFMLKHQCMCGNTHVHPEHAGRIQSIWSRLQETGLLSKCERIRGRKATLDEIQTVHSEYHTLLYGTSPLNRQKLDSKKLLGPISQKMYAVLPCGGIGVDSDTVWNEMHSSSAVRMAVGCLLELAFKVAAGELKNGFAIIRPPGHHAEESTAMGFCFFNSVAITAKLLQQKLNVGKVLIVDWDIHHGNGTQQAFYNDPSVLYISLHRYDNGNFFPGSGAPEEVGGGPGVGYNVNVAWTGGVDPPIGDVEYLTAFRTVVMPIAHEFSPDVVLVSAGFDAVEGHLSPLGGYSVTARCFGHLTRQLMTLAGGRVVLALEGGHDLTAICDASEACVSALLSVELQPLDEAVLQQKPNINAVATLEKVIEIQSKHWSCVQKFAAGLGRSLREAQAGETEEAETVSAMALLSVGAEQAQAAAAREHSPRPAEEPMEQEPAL
In a further assay the target is Histone deacetylase 9 (Homo sapiens, UniProt Q9UKV0). The experiment in a line: Inhibition of recombinant human HDAC9 measured after 30 mins by fluorescence microplate reader assay.
Histone deacetylase 9, sequence (Q9UKV0 whole entry): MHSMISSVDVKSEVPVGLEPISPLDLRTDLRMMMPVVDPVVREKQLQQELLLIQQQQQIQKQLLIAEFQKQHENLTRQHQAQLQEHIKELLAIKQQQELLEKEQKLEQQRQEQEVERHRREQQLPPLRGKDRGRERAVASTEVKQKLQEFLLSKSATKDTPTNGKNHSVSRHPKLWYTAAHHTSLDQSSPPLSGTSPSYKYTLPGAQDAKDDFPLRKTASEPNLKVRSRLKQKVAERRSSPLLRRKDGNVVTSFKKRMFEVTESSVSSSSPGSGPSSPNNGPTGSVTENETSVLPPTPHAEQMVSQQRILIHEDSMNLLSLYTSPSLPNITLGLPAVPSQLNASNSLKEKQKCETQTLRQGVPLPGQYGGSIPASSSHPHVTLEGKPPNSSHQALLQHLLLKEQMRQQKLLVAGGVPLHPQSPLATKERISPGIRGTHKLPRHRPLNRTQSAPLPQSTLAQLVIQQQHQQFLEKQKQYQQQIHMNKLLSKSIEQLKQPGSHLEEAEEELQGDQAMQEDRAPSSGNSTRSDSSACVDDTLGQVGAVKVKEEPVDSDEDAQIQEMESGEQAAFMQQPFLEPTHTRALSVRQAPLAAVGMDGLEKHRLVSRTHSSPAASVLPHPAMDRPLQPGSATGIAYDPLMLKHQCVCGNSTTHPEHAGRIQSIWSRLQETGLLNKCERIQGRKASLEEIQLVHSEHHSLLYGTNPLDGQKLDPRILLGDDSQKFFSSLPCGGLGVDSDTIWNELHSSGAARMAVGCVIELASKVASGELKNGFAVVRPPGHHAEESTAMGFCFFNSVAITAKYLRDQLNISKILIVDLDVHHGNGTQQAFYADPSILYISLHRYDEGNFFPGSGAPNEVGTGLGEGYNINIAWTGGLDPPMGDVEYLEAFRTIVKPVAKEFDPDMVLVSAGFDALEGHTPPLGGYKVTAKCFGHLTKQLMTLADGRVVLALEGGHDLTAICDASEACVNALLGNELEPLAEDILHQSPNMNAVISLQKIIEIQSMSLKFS
The target of assay [4] is NAD-dependent protein deacetylase sirtuin-2 (Homo sapiens, UniProt Q8IXJ6). Description: Inhibition of recombinant human SIRT2 measured after 30 mins by fluorescence microplate reader assay.
NAD-dependent protein deacetylase sirtuin-2, sequence (Q8IXJ6 whole entry): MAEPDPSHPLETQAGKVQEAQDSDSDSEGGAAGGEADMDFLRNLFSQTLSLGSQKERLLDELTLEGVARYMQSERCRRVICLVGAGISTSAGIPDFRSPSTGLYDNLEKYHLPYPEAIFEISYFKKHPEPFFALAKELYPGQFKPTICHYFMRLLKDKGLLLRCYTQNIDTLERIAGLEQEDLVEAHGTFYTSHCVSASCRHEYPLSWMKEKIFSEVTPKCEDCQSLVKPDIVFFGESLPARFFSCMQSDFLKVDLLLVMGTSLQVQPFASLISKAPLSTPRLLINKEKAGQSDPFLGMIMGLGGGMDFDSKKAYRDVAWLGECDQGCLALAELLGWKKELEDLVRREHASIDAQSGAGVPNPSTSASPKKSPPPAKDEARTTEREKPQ
Assay [5] has as its target NAD-dependent protein deacylase sirtuin-5, mitochondrial (Homo sapiens, UniProt Q9NXA8). Description: Inhibition of recombinant human SIRT5 measured after 30 mins by fluorescence microplate reader assay.
A further assay deals with HepG2. Description: Antiproliferative activity against human HepG2 cells assessed as cell growth inhibition measured after 48 hrs by CCK8 assay. It is filed as functional, cell-based. Conditions: HepG2, 48 h.
For a further assay, the system named is HeLa. Description: Antiproliferative activity against human HeLa cells assessed as cell growth inhibition measured after 48 hrs by CCK8 assay. Type of assay: functional, cell-based.
The subject of another assay is K562. Description: Antiproliferative activity against human K562 cells assessed as cell growth inhibition measured after 48 hrs by CCK8 assay. The settings on record: K562, 48 h. It is filed as functional, cell-based. On the technique in general: Tetrazolium dyes change colour on reduction, which living cells bring about.
The subject of assay [6] is A549. The experiment in a line: Antiproliferative activity against human A549 cells assessed as cell growth inhibition measured after 48 hrs by CCK8 assay. It is filed as functional, cell-based. The settings on record: A549, 48 h.
Assay [7] relates to MCF7. The experiment in a line: Induction of apoptosis in human MCF7 cells measured after 48 hrs by Annexin-V/FITC-propidium iodide staining based flow cytometry analysis. Type of assay: functional, cell-based. Conditions: dose 2.5-10 µM.
Assay [8] has as its system MCF7. Description: Induction of apoptosis in human MCF7 cells assessed as increase in sum of early and late apoptotic cells at 2.5 to 10 uM measured after 48 hrs by Annexin-V/FITC-propidium iodide staining based flow cytometry analysis. Type of assay: functional, cell-based. The settings on record: dose 2.5-10 µM. In general terms: In flow cytometry, cells or beads pass a laser one at a time.

In assay [9] the test system is A549. Description: Induction of apoptosis in human A549 cells assessed as increase in sum of early and late apoptotic cells at 2.5 to 10 uM measured after 48 hrs by Annexin-V/FITC-propidium iodide staining based flow cytometry analysis. Type of assay: functional, cell-based. The settings on record: dose 2.5-10 µM.
Assay [10] relates to A549. The experiment in a line: Induction of apoptosis in human A549 cells assessed as downregulation of […] protein measured after 48 hrs by Western blot analysis. Type of assay: functional, cell-based. Conditions: dose 1-10 µM. Background: Immunoblotting shows a protein as a band on a membrane.
Assay [11] has as its system A549. The experiment in a line: Antitumor activity against human A549 cells xenografted in BALB/c nude mouse assessed as reduction in tumor volume at 0.75 to 1.5 mg, IT (intratumoral) administered for 21 consecutive days. It is filed as functional, cell-based. The settings on record: dose 0.75-1.5 mg, time 21.0 day.

We go through three compounds from ChEMBL document CHEMBL4842385, “Indirubin Derivatives as Dual Inhibitors Targeting Cyclin-Dependent Kinase and Histone Deacetylase for Treating Cancer” (J Med Chem, 2021).

Structures are written as SMILES. pIC50: −log10 of the molar value. Activity calls are given as the source filed them. The rule behind the calls is not given here. A value given as a limit tells only on which side of the number the result lay.

By pIC50 is commonly meant the IC50 on a negative log10 scale, so that one unit is a factor of ten. The term inhibition denotes the share of the control response that was lost under treatment. A low value points to little suppression.

NAD-dependent protein deacylase sirtuin-5, mitochondrial, sequence (Q9NXA8 whole entry): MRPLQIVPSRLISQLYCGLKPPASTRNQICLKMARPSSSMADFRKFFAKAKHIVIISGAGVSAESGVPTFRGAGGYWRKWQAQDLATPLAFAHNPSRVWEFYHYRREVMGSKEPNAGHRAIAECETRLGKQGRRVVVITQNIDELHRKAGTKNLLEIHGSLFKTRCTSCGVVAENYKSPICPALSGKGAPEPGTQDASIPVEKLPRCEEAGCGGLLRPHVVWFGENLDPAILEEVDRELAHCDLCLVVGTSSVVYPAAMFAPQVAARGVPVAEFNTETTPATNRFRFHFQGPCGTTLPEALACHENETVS

In the case of `C#CCN1C(=O)/C(=C2\Nc3ccccc3\C2=N/OCCCC(=O)NO)c2ccccc21`, the pIC50 is 5.73 in [1], below 5.30 against Histone deacetylase 8 and below 6.00 on CDK4/Cyclin D3. Further, the values for the inhibition in assay [2] and in assay [3] were 3.9% and 23%, respectively.
In the case of `O=C(CCCO/N=C1/C(=C2/C(=O)Nc3ccccc32)Nc2ccccc21)NO`, the pIC50 is below 5.30 on Histone deacetylase 5; 6.89 in [1]; below 5.30 at Histone deacetylase 8; below 5.30 at Histone deacetylase 9; below 4.00 in assay [4]; below 4.00 in [5]. For the same compound, the pIC50 on CDK4/Cyclin D3 was 6.56; with HepG2, 5.24; in the assay with HeLa, 6.10; in the assay with K562, 5.60; in the assay on A549 [6] it was 5.70. The Activity entry in the assay with MCF7 [7] and in the assay on A549 [10] was “Dose-Dependent Effect” each time. Further, the result in the assay with MCF7 [8], with A549 [9] and in the assay on A549 [11] was Active. In addition, the inhibition in [2] was determined as 30.2%; in assay [3], 51%.
Consider `O=C(O)CCCO/N=C1/C(=C2/C(=O)Nc3ccccc32)Nc2ccccc21`, for which the pIC50 against Histone deacetylase 5 is below 5.30; in [1], below 5.30; against Histone deacetylase 8, below 5.30; on Histone deacetylase 9, below 5.30; in assay [4], below 4.00; in assay [5] it was below 4.00. The pIC50 in the assay with HepG2, in the assay with HeLa, with K562 and in the assay with A549 [6] was below 5.00 each time. For the same compound, the inhibition in [3] is 0.1%.
